Laboratory results as given in patent publication US6514967B1 (priority 1997, dated 2003).

Columns and labels:
astrocytes = assay: Recapture of glutamate by cultures of astrocytes, radicals generated by xanthine/xanthine oxidase (X/XO); assay type: cell-based, rats
Experimental: B) Procedure with cultures of astrocytes and generation of radicals by the xanthine/xanthine oxidase (X/XO) pair
400 μl of D-lysine at 25 μg/ml (9 ml of D-lysine at 100 μg per ml of borate buffer (0.1M pH 8.4)+27 ml of water) is placed in each well of 24-well culture plates. The wells are left in the stove (5% CO2, 37° C.) over night. Each well is rinsed with 2 times 750 μl of Hanks before receiving the culture medium. 3 lateral demi cortices are taken from rats aged 1 to 2 days. (The hippocampus, the striatum and the meninges are removed). The demi cortices are placed in 2 ml of trypsin-EDTA then put in the stove for 30 min. The action of the trypsin is stopped with 10% of decomplemented foetal calf serum (200 μl). The serum and the trypsin are removed then the cells are dissociated with a pipette in 10 ml of medium (MEM 225 ml+FCS-D 25 ml+glucose 20% 7.5 ml) (MEM=minimum essential medium; FCS-D=decomplemented foetal calf serum). The culture medium is made up to 30 ml, stirred and placed at 400 μl per well. The medium is changed twice weekly for 18 days. The last replacement is effected 4 days prior to the treatment, with a medium without decomplemented foetal calf serum. (MEM 31.5 ml+glucose 20% 1.05 ml).
Treatment takes place on the 18th or 19th day.
Each well is washed with 750 μl of buffer (NaCl 124 mM, KCl 4.6 mM, CaCl2 1.2 mM, MgCl2 1.3 mM, KH2PO4 0.416 mM, NaHCO3 26.75 mM, glucose 10 mM; pH 7.4) for 10 min. The cells are incubated in the presence of xanthine (500 μM) and of the test product (from 0 to 1 mM). After 10 min, xanthine oxidase is added (50 mU/ml) and it is again left to incubate for 10 min. Release of radicals is stopped by washing 3 times with catalase (3000 U/ml). The glutamate is then recaptured in a solution of radioactive glutamate (^3H) at 40 μM (isotopic dilution 1/20000). Recapture is stopped by washing 3 times with the cold buffer. The cells are detached with soda 0.2N and the radioactivity is measured.
Firstly we checked that the inhibition of recapture observed in the presence of X/XO is indeed due to a radical process. For this we replaced the test products with two enzymes: SOD (SuperOxide Dismutase) and catalase (FIG. 1). […] The Fenton reaction converting hydrogen peroxide to OH• is thus short-circuited. […] However, as there seems to be sufficient reducing agent in the medium to promote the formation of H2O2 starting from O2^•^−, it appears likely that a substantial proportion of H2O2 gives OH• (a highly reactive radical).
FIGS. 3 to 8 are the mean of at least 4 independent tests in which the protective power of IC180, IC023, IC241, IC2-16, IC178, IC140, IC209, IC237, IC146, IC193, IC194, IC242, IC207, IC2-19, IC219, IC2-21, and IC249, as a function of the dose, was tested against a fixed concentration of radicals, and therefore of X/XO. In the case of IC180, the increase in recapture appears to be linear (up to 100% is found in some tests). […] Since IC023 alone only becomes “toxic” starting from 1 mM, the variation observed starting from 0.6 mM might reflect the existence of metabolites that are poorly tolerated by the cells. The derivative morpholine IC180 is more interesting.

[1] = system: release of free radicals induced by glutamate in the striatum; assay: In vivo intracerebral perfusion (striatum microdialysis), generation of radicals by injection of glutamate; details: 1 mM in perfusion medium
From the text: C) tests in vivo on intracerebral perfusion and generation of radicals by injection of glutamate.
Experimental preparation: [J. Neurosci. Methods, 72 (1997) 123-135]
The animals used are male rats of the Wistar strain weighing 250 g. Under general anaesthesia, the animals are placed in a stereotaxic apparatus. A cannula guide is introduced by microsurgery into the striatum (coordinates A : +0.02 cm; L: −0.30 cm and H: −0.65 cm relative to the 0 point defined according to Paxinos and Watson). Three to four screws are arranged on the animal's skull and the whole is fixed with dental cement (Durelon). After a recovery period during which the animals become used to the tester, a CMA 12 microdialysis cannula is inserted in the guide in such a way that the cellophane membrane projects 2 mm into the brain tissue. All the perfusions are effected on animals that are awake. A physiological solution (NaCl: 140 mM; KCl: 5 mM; […]: 3.9 mM), to which 250 μM of Na salicylate is added extemporaneously, is injected into the system at a constant flow rate of 1 μl.min^−1. […]
Salicylic acid present in the perfusion fluid reacts with the OH radicals released at the perfusion site, forming a compound, 2,3-dihydroxybenzoic acid (2,3-DBHA), which is specific to this reaction. This reaction product is quantified in each sample by high-performance liquid chromatography followed by Electrochemical Detection. […]

c1cc2c(s1)CCCC2N1CCOCC1 (stereo not shown) [IC180, morpholine-4-tetrahydro-4,5,6,7-benzothiophene]
increase in recapture of glutamate, highest found (astrocytes; fixed concentration of X/XO, dose-dependent, found in some tests): up to 100% | effect of the product alone on recapture (astrocytes; without the presence of X/XO): no effect on recapture | release of free radicals induced by glutamate (2,3-dihydroxybenzoic acid) ([1]; striatum, awake rats, 1.5 mM Na glutamate, FIG. 9): Blocking | toxic side effect of introduction in situ ([1]; response restored a week later): did not have a toxic side effect
